Read-outs that look alike come from different tables or passages of the source.
Experiments:
M. tuberculosis InhA [1] = target: T1, M. tuberculosis InhA (Mycobacterium tuberculosis, UniProt P9WGR1); test: InhA in vitro inhibition assay; type: biochemical
M. tuberculosis H37Rv [2] = test: microbe, parasite or virus in culture; type: cell-based, Mycobacterium tuberculosis; conditions: for IC90: Mycobacterium tuberculosis, H37RV, whole-cell M. tuberculosis
[3] = test system: intracellular M. tuberculosis in THP-1 cells; test: microbe, parasite or virus in culture; type: cell-based; conditions: Mycobacterium tuberculosis
in vitro [4] = type: cell-based; conditions: human; read-out: HepG2 cytotoxicity IC50
Description: HepG2 human liver cells (ATCC HB 8065) were propagated in DMEM containing either 25 mM glucose or 10 mM galactose plus 10% vol/vol FBS, 1 mM sodium pyruvate, 2 mM Corning glutagro, 100 U/ml penicillin, and 100 μg/ml streptomycin. The cells were seeded in 384-well plates at 1,800 cells per well and incubated in a humidified incubator at 37°C, 5% CO2. Compounds were solubilized in DMSO and assayed using a 10-point threefold serial dilution. Compounds were added 24 h post cell seeding to a final assay concentration of 1% DMSO and highest compound concentration of 100 μM. The cells were incubated for 72 h and viability measured using CellTiter-Glo reagent (Promega) and reading RLU. Growth inhibition curves were fitted using the Levenberg–Marquardt algorithm. The IC50 was defined as the compound concentration that produced 50% of the inhibitory response against HepG2 cells.

M. tuberculosis H37Rv [5] = test: Kill kinetics under replicating conditions; type: cell-based, Mycobacterium tuberculosis
in vitro [6] = conditions: human
M. tuberculosis InhA [7] = target: T1, M. tuberculosis InhA; test: biochemical; type: binding
M. tuberculosis Erdman = type: in vivo, Mycobacterium tuberculosis; conditions: dose escalation study (Table S4), 25 mg/kg, day 22

T1 sequence (P9WGR1 whole entry, looked up): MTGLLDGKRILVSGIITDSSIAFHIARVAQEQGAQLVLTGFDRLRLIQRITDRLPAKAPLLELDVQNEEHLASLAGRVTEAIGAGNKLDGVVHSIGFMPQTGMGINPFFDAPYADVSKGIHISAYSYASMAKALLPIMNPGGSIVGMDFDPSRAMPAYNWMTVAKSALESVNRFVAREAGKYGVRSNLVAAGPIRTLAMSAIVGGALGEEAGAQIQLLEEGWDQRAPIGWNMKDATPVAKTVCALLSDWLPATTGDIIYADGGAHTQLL

Q: With `OB1OCc2ccc(Oc3ccc(C(F)(F)F)cc3)cc21` [AN2918] as the compound, how does the IC50 (M. tuberculosis InhA [1]) read?
A: 44 µM

Q: What about the IC90 (M. tuberculosis H37Rv [2]) of the same compound?
A: > 200 µM

Q: What does the source list for `CS(=O)(=O)N1N=Cc2ccc(Oc3ccc(C(F)(F)F)cc3/C=N/O)cc2B1O` [AN12541]?
A: IC50 (M. tuberculosis InhA [1]): 0.4 µM; increase in potency against purified InhA (M. tuberculosis InhA [1]; versus AN6534): 190 fold; IC90 (M. tuberculosis H37Rv [2]): 0.11 ± 0.21 µM; increase in potency against M. tuberculosis (M. tuberculosis H37Rv [2]; versus AN6534): 350 fold; IC50 [3]: 0.046 ± 0.013 µM; IC90 [3]: 0.11 ± 0.01 µM; IC50 (in vitro [4]): > 100 µM; bactericidal activity (M. tuberculosis H37Rv [5]): similarly active; IC50 (in vitro [6]): > 50 µM

Q: Which results are given for `CS(=O)(=O)N1N=Cc2ccc(Oc3ccc(C#N)cc3)cc2B1O` [AN6534]?
A: IC50 (M. tuberculosis InhA [1]): 79 µM; IC90 (M. tuberculosis H37Rv [2]): 36 ± 1.7 µM

Q: For `CCS(=O)(=O)N1N=Cc2cc(Oc3ccc(C(F)(F)F)cc3/C=N/O)ccc2B1O` [AN12908], which IC50 (M. tuberculosis InhA [1]) is on record?
A: 2.3 µM

Q: What about the IC90 (M. tuberculosis H37Rv [2]) of the same compound?
A: 7 ± 2.6 µM

Q: What about the “cofactor dependence of binding to InhA” value (M. tuberculosis InhA [7]) of the same compound?
A: dependent on NAD^+ for binding

Q: What about the Kd (M. tuberculosis InhA [7]; cofactor: NAD^+) of the same compound?
A: 0.847 ± 0.318 µM

Q: What about the “N (stoichiometry of binding)” value (M. tuberculosis InhA [7]; cofactor: NAD^+) of the same compound?
A: 0.49 ± 0.022

Q: What about the “∆H” value (M. tuberculosis InhA [7]; cofactor: NAD^+) of the same compound?
A: −25,010 ± 1,496 cal/mol

Q: And the “∆S” value (M. tuberculosis InhA [7]; cofactor: NAD^+)?
A: −56 cal/mol/deg

Q: What does the source list for `NNC(=O)c1ccncc1` [INH, isoniazid]?
A: IC90 (M. tuberculosis H37Rv [2]): 0.2 µM; Mean ± SEM Log10 CFU (M. tuberculosis Erdman; lung): 4.6 ± 0.06 Log10 CFU; Mean ± SEM Log10 CFU (M. tuberculosis Erdman; spleen): 2.4 ± 0.15 Log10 CFU

Q: With `N#Cc1ccc(Oc2ccc3c(c2)COB3O)c(/C=N/O)c1` [AN3438] as the compound, how does the IC50 (M. tuberculosis InhA [1]) read?
A: 12 µM

Q: And the IC90 (M. tuberculosis H37Rv [2])?
A: 16 ± 1.2 µM

— paper PMC6238539, “Discovery of a cofactor-independent inhibitor of Mycobacterium tuberculosis InhA” (Life Science Alliance, 2018)
